Measured values taken from ChEMBL document CHEMBL2303647, “Data associated with the publication PLoS ONE, 8(3), e57888, (2013) PMID: 23505445. Compounds: GSK PKIS; Assays: NIH NCATS”.

What was measured:
[1] = target: T1, Coelenterazine h 2-monooxygenase (Renilla reniformis, UniProt P27652)
T1 sequence (P27652 whole entry): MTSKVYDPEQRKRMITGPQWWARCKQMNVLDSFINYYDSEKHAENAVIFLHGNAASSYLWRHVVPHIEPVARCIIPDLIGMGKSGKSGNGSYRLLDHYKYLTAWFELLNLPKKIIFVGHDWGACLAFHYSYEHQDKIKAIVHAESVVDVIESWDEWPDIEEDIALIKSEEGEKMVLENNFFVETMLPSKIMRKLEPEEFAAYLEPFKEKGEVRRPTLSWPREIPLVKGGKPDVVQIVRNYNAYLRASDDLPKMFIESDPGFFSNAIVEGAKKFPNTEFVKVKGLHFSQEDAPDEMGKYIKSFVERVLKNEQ
Description: GSK_PKIS: Inhibition of Sea Pansy Luciferase (Data from PubChem: AID 652015) [NIH NCATS]

[2] = target: Luciferin 4-monooxygenase (Photinus pyralis, UniProt P08659)
Chain of Luciferin 4-monooxygenase (P08659 whole entry): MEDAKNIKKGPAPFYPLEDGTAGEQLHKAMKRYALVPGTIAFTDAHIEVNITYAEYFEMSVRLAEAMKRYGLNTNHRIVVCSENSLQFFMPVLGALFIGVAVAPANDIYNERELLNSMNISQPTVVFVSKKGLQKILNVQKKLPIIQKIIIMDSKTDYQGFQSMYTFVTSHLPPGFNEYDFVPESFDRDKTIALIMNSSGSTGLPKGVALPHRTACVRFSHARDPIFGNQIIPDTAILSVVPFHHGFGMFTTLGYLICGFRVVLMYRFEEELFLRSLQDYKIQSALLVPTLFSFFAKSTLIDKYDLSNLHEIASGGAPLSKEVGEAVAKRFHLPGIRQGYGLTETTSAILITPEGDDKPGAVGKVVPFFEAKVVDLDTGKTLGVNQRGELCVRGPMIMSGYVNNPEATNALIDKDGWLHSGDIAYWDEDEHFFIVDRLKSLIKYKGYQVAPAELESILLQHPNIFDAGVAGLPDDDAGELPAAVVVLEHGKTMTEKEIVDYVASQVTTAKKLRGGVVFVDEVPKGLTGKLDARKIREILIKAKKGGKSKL
Description: GSK_PKIS: Inhibition of Firefly Luciferase (Data from PubChem: AID 652016) [NIH NCATS]

AC50 ([2]; read-out: AC50) | Compound | AC50 [1] | AC50 ([1]; read-out: AC50) | AC50 [2]
29.1 µM | CN(C)C(=O)O[C@H]1CN[C@H](C#Cc2cc3ncnc(Nc4ccc(OCc5cccc(F)c5)c(Cl)c4)c3s2)C1 [GSK-182497A] | Phenotype: Inactive; Curve_Description: None | – | –
18.3 µM | Cl.O=C(O[C@H]1CN[C@H](C#Cc2cc3ncnc(Nc4ccc5c(cnn5Cc5ccccc5)c4)c3s2)C1)N1CCOCC1 [GSK-200398A] | Phenotype: Inactive; Curve_Description: None | – | –
– | NS(=O)(=O)c1cccc(-c2cc3ccncc3cc2OCc2ccccc2)c1 [GSK-980961A] | – | 25.9 µM | Phenotype: Inactive; Curve_Description: None
– | COc1cc2ncn(-c3cc(OCc4ccccc4Cl)c(C(N)=O)s3)c2cc1OC [GW852849X] | Phenotype: Inactive; Curve_Description: None | – | Phenotype: Inactive; Curve_Description: None
– | C[C@@H](Oc1cc(-n2cnc3ccc(OCC4CCN(C)CC4)cc32)sc1C(N)=O)c1ccccc1C(F)(F)F [GSK-326090A] | – | 25.9 µM | Phenotype: Inactive; Curve_Description: None
– | COc1ccc(-c2nn3ncccc3c2-c2ccnc(Nc3ccc(Cl)c(C(F)(F)F)c3)n2)cc1 [GW829115X] | Phenotype: Activator; Curve_Description: None | – | Phenotype: Inactive; Curve_Description: None
20.6 µM | Cl.O=C(Nc1ccc(Oc2ccc3[nH]c(NC(=O)c4ccco4)nc3c2)cc1)Nc1cc(C(F)(F)F)ccc1F [GW683134A] | Phenotype: Inactive; Curve_Description: None | – | –
– | CCS(=O)(=O)c1ccc(OC)c(Nc2ncc(-c3cccc(-c4ccccc4F)c3)o2)c1 [GW678313X] | Phenotype: Inactive; Curve_Description: None | – | Phenotype: Inactive; Curve_Description: None
– | O=C1Nc2ccc(I)cc2C1=Cc1cc(Br)c(O)c(Br)c1 [GW305074X] | – | 20.6 µM | Phenotype: Inactive; Curve_Description: None
25.9 µM | COc1cc(N2CCN(C(C)C)CC2)ccc1Nc1nc(Nc2cccc3ncccc23)c2cc[nH]c2n1 [GSK-1511931A] | – | 18.3 µM | –
– | CC(C)c1ccc(-c2cc(-c3c[nH]nc3-c3ccccn3)ccn2)cc1 [GW682841X] | – | 1.46 µM | Phenotype: Activator; Curve_Description: None
– | N#Cc1cccc(Nc2nccc(-c3cnn4ncccc34)n2)c1 [GW778894X] | Phenotype: Inactive; Curve_Description: None | – | Phenotype: Inactive; Curve_Description: None
– | CCN1CCC(CC(=O)Nc2n[nH]c3nc(-c4cccs4)c(Br)cc23)CC1.O=C(O)C(O)C(O)C(=O)O | – | 29.1 µM | Phenotype: Inactive; Curve_Description: None
– | Cc1nc(-c2ccccc2)n2nc(NCCCN3CCOCC3)ncc12 [GW874091X] | Phenotype: Inactive; Curve_Description: None | – | Phenotype: Inactive; Curve_Description: None
29.1 µM | Cc1ccc(C(=O)NC2CCC2)cc1-c1ccc(C(=O)NCC2CC2)cc1 [GW782912X] | Phenotype: Inactive; Curve_Description: None | – | –
– | CC1=C(C(=O)Nc2ccc3[nH]ncc3c2)C(c2ccc(F)cc2)NC(=O)N1 (stereo not given) [GSK-180736A] | Phenotype: Inactive; Curve_Description: None | – | Phenotype: Inactive; Curve_Description: None
– | COc1ccc2cc(-c3c(-c4ccncc4)nc(-c4ccc([S+](C)[O-])cc4C)n3C)ccc2c1 (stereo not given) | – | 41.1 µM | Phenotype: Inactive; Curve_Description: None
0.291 µM | CCCN1CCC(Oc2cc(Nc3nc(Nc4cccc(F)c4C(N)=O)c4cc[nH]c4n3)c(OC)cc2Cl)CC1 [GSK-1713088A] | Phenotype: Activator; Curve_Description: None | – | –
– | CCn1c(-c2nonc2N)nc2c(C#CC(C)(C)O)ncc(OCC3CCNCC3)c21.O=C(O)C(F)(F)F [GSK-554170A] | Phenotype: Inactive; Curve_Description: None | – | Phenotype: Inactive; Curve_Description: None

Compound | AC50 ([2]; read-out: AC50) | AC50 [1] | AC50 ([1]; read-out: AC50) | AC50 [2]
CNC(=O)Oc1cc(C)c(/C=C/c2cncc(C(=O)NC)c2)c(C)c1 [GW432441X] | 29.1 µM | Phenotype: Inactive; Curve_Description: None | – | –
